{"source": "patent US20130310256A1", "about": "“HERBICIDAL COMPOSITIONS COMPRISING 4-AMINO-3-CHLORO-5-FLUORO-6-(4-CHLORO-2-FLUORO-3-METHOXYPHENYL) PYRIDINE-2-CARBOXYLIC ACID OR A DERIVATIVE THEREOF AND VLCFA AND LIPID SYNTHESIS INHIBITING HERBICIDES” (DOW AGROSCIENCES LLC, priority 2008, published 2013)", "key": {"ECHOR": {"test_system": "ECHOR", "assay": "Example II: in-water applied weed control, transplanted paddy rice, greenhouse", "format": "in vivo, Echinochloa oryzoides (Ard.) Fritsch (early watergrass)", "details": "Echinochloa oryzoides, 504 h, 21 DAA, read-out: Visual Weed Control ECHOR Obs", "experimental": "(§1) Weed seeds or nutlets of the desired test plant species were planted in puddled soil (mud) prepared by mixing a shredded, non-sterilized mineral soil (50.5 percent silt, 25.5 percent clay, and 24 percent sand, with a pH of about 7.6 and an organic matter content of about 2.9 percent) and water at a 1:1 volumetric ratio. The prepared mud was dispensed in 365 mL aliquots into 16-ounce (oz.) non-perforated plastic pots with a surface area of 86.59 square centimeters (cm^2) leaving a headspace of 3 centimeters (cm) in each pot. Mud was allowed to dry overnight prior to planting or transplanting. Rice seeds were planted in Sun Gro MetroMix® 306 planting mixture, which typically has a pH of 6.0 to 6.8 and an organic matter content of about 30 percent, in plastic plug trays. Seedlings at the second or third leaf stage of growth were transplanted into 840 mL of mud contained in 32-oz. non-perforated plastic pots with a surface area of 86.59 cm^2 4 days prior to herbicide application. The paddy was created by filling the headspace of the pots with 2.5 to 3 cm of water. When required to ensure good germination and healthy plants, a fungicide treatment and/or other chemical or physical treatment was applied. The plants were grown for 4-22 days in a greenhouse with an approximate 14 hr photoperiod which was maintained at about 29′C during the day and 26° C. during the night. Nutrients were added as Osmocote® (19:6:12, N:P:K+ minor nutrients) at 2 g per 16-oz. pot and 4 g per 32-oz. pot. Water was added on a regular basis to maintain the paddy flood, and supplemental lighting was provided with overhead metal halide 1000-Watt lamps as necessary. The plants were employed for testing when they reached the first through fourth true leaf stage.\n(§2) Treatments consisted of the acid or esters of 4-amino-3-chloro-5-fluoro-6-(4-chloro-2-fluoro-3-methoxy-phenyl)pyridine-2-carboxylic acid (compound A) each formulated as an SC (suspension concentrate) and various herbicidal components alone and in combination. Forms of compound A were applied on an acid equivalent basis.\n(§3) The herbicidal components were applied on an active ingredient basis and included very long chain fatty acid (VLCFA) synthesis-inhibiting and fatty acid/lipid synthesis-inhibiting herbicides acetochlor (technical grade material), acetochlor+dichlormid formulateded as Topnotch®, pretilachlor (technical grade material), butachlor formulated as Butachlor EC, fentrazamide formulated as Fentrazamide EC, thiobencarb formulated as Bolero® 8EC, cafenstrole formulated as Himeadow® WP or Lapost® Flowable, benfuresate formulated as Full Shot®, anilofos (technical grade material), mefenacet (technical grade material), molinate (technical grade material), and thenylchlor (technical grade material).\n(§4) Treatment requirements for each compound or herbicidal component were calculated based upon the rates being tested, the concentration of active ingredient or acid equivalent in the formulation, an application volume of 2 mL per component per pot, and an application area of 86.59 cm^2 per pot.\n(§5) For formulated compounds, a measured amount was placed in an individual 100 or 200 mL glass vial and was dissolved in a volume of 1.25% (v/v) Agri-Dex® crop oil concentrate to obtain application solutions.\n(§6) For technical grade compounds, a weighed amount was placed in an individual 100 to 200 mL glass vial and was dissolved in a volume of acetone to obtain concentrated stock solutions. […] The concentrated stock solutions obtained were diluted with an equivalent volume of an aqueous mixture containing 2.5% (v/v) crop oil concentrate so that the final application solutions contained 1.25% (v/v) crop oil concentrate.\n(§7) Applications were made by injecting with a pipetter appropriate amounts of the application solutions, individually and sequentially, into the aqueous layer of the paddy. Control plants were treated in the same manner with the solvent blank. […]"}, "LEFCH [1]": {"test_system": "LEFCH", "assay": "Example II: in-water applied weed control, transplanted paddy rice, greenhouse", "format": "in vivo, Leptochloa chinensis (L.) Nees (Chinese sprangletop)", "details": "19 DAA", "experimental": "as §1, §2, §3, §4, §5, §6, §7"}, "LEFCH [2]": {"test_system": "LEFCH", "assay": "Example I: postemergence foliar-applied weed control, greenhouse", "format": "in vivo, Leptochloa chinensis (L.) Nees (Chinese sprangletop)", "details": "foliar", "text": "(§8) Seeds or nutlets of the desired test plant species were planted in a soil matrix prepared by mixing a loam or sandy loam soil (e.g., 28.6 percent silt, 18.8 percent clay, and 52.6 percent sand, with a pH of about 5.8 and an organic matter content of about 1.8 percent) and calcareous grit in an 80 to 20 ratio. The soil matrix was contained in plastic pots with a volume of 1 quart and a surface area of 83.6 square centimeters (cm^2). When required to ensure good germination and healthy plants, a fungicide treatment and/or other chemical or physical treatment was applied. The plants were grown for 8-22 days in a greenhouse with an approximate 14 hr photoperiod which was maintained at about 29° C. during the day and 26° C. during the night. Nutrients (Peters Excel® 15-5-15 5-Ca 2-Mg and iron chelate) were applied in the irrigation solution as needed and water was added on a regular basis. Supplemental lighting was provided with overhead metal halide 1000-Watt lamps as necessary. The plants were employed for testing when they reached the first through fourth true leaf stage.\nas §2, with “(Compound A),” for “(compound A)”, “concentrate),” for “concentrate)”\n(§9) Other herbicidal components were applied on an active ingredient basis and included very long chain fatty acid (VLCFA) synthesis-inhibiting and fatty acid/lipid synthesis-inhibiting herbicides acetochlor (technical grade material), acetochlor+dichlormid formulated as Topnotch®, pretilachlor (technical grade material), butachlor formulated as Butachlor EC, fentrazamide formulated as Fentrazamide EC, thiobencarb formulated as Bolero® 8EC, cafenstrole formulated as Himeadow® WP or Lapost® Flowable, benfuresate formulated as Full Shot®, dimethenamid-P formulated as Outlook®, indanofan (technical grade material), flufenacet formulated as Define® DF, mefenacet (technical grade material), S-metolachlor formulated as Dual® II Magnum, pethoxamid formulated as Successor® 600, and pyroxasulfone (technical grade material).\n(§10) Treatment requirements were calculated based upon the rates being tested, the concentration of active ingredient or acid equivalent in the formulation, and a 12 mL application volume at a rate of 187 L/ha.\n(§11) For treatments comprised of formulated compounds, measured amounts of compounds were placed individually in 25 mL glass vials and diluted in a volume of 1.25% (v/v) Agri-Dex® crop oil concentrated to obtain 12× stock solutions. […] Application solutions were prepared by adding an appropriate amount of each stock solution (e.g., 1 mL) and diluted to the appropriate final concentrations with the addition of 10 mL of an aqueous mixture of 1.25% (v/v) crop oil concentrate so that the final spray solutions contained 1.25+/−0.05% (v/v) crop oil concentrate.\n(§12) For treatments comprised of technical compounds, weighed amounts can be placed individually in 25 mL glass vials and dissolved in a volume of 97:3 v/v acetone/DMSO to obtain 12× stock solutions. […] Application solutions can be prepared by adding an appropriate amount of each stock solution (e.g., 1 mL) and diluted to the appropriate final concentrations with the addition of 10 mL of an aqueous mixture of 1.5% (v/v) crop oil concentrate so that the final spray solutions contain 1.25% (v/v) crop oil concentrate. When technical materials are used, the concentrated stock solutions can be added to the spray solutions so that the final acetone and DMSO concentrations of the application solutions are […], respectively. […]"}, "ECHCO": {"test_system": "ECHCO", "assay": "Example I: postemergence foliar-applied weed control, greenhouse", "format": "in vivo, Echinochloa colona (L.) Link (junglerice)", "details": "foliar", "text": "as §8\nas §2, with “(Compound A),” for “(compound A)”, “concentrate),” for “concentrate)”\nas §9, §10, §11, §12"}, "ECHCG": {"test_system": "ECHCG", "assay": "Example I: postemergence foliar-applied weed control, greenhouse", "format": "in vivo, Echinochloa crus-galli (L.) Beauv. (barnyardgrass)", "details": "59 gai/ha; foliar", "text": "as §8\nas §2, with “(Compound A),” for “(compound A)”, “concentrate),” for “concentrate)”\nas §9, §10, §11, §12"}, "BRAPP": {"test_system": "BRAPP", "assay": "Example I: postemergence foliar-applied weed control, direct seeded rice weeds, greenhouse", "format": "in vivo", "details": "foliar", "text": "as §8\nas §2, with “(Compound A),” for “(compound A)”, “concentrate),” for “concentrate)”\nas §9, §10, §11, §12"}}, "data": [{"smiles": "CCSC(=O)N1CCCCCC1", "note": "[Molinate, S-ethyl hexahydro-1H-azepine-1-carbothioate]", "values": [{"measurement": "pest or weed control at 1400 g/ha", "setting": "ECHOR; 1400 gai/ha", "result": 55, "unit": "%"}, {"measurement": "pest or weed control at 2800 g/ha", "setting": "ECHOR; 2800 gai/ha", "result": 85, "unit": "%"}]}, {"smiles": "CCC1(CC2(c3cccc(Cl)c3)CO2)C(=O)c2ccccc2C1=O", "note": "(racemic) [Indanofan, (RS)-2-[[2-(3-chlorophenyl)oxiranyl]methyl]-2-ethyl-1H-indene-1,3(2H)-dione]", "values": [{"measurement": "Visual Weed Control LEFCH Obs", "setting": "LEFCH [1]; 37.5 gai/ha", "result": 10, "unit": "%"}, {"measurement": "Visual Weed Control LEFCH Obs", "setting": "LEFCH [1]; 75 gai/ha", "result": 20, "unit": "%"}, {"measurement": "Visual Weed Control LEFCH Obs", "setting": "LEFCH [1]; 150 gai/ha", "result": 95, "unit": "%"}, {"measurement": "Visual Weed Control (%) - 19 DAA LEFCH Obs", "setting": "LEFCH [2]; 37.5 gai/ha", "result": 0, "unit": "%"}, {"measurement": "Visual Weed Control (%) - 19 DAA LEFCH Obs", "setting": "LEFCH [2]; 75 gai/ha", "result": 0, "unit": "%"}, {"measurement": "Visual Weed Control (%) - 19 DAA ECHCO Obs", "setting": "ECHCO; 37.5 gai/ha", "result": 0, "unit": "%"}, {"measurement": "Visual Weed Control (%) - 19 DAA ECHCO Obs", "setting": "ECHCO; 75 gai/ha", "result": 0, "unit": "%"}, {"measurement": "Visual Weed Control (%) - 19 DAA ECHCO Obs", "setting": "ECHCO; 150 gai/ha", "result": 35, "unit": "%"}]}, {"smiles": "Cn1nc(C(F)(F)F)c(CS(=O)(=O)C2=NOC(C)(C)C2)c1OC(F)F", "note": "[Pyroxasulfone, 3-[[[5-(difluoromethoxy)-1-methyl-3-(trifluoromethyl)-1H-pyrazol-4-yl]methyl]sulfonyl]-4,5-dihydro-5,5-dimethylisoxazole]", "values": [{"measurement": "Visual Weed Control (%) - 22 DAA ECHCG Obs", "setting": "ECHCG", "result": 70, "unit": "%"}, {"measurement": "Visual Weed Control (%) - 22 DAA BRAPP Obs", "setting": "BRAPP; 29.5 gai/ha", "result": 0, "unit": "%"}, {"measurement": "Visual Weed Control (%) - 22 DAA BRAPP Obs", "setting": "BRAPP; 59 gai/ha", "result": 0, "unit": "%"}, {"measurement": "Visual Weed Control (%) - 22 DAA BRAPP Obs", "setting": "BRAPP; 118 gai/ha", "result": 20, "unit": "%"}]}]}
